The source of these data is US12398132B2, “Derivatives of 4-(imidazo[1,2-a]pyridin-3-yl)-n-(pyridinyl)pyrimidin-2-amine as therapeutic agents” (AUCENTRA THERAPEUTICS PTY LTD, priority 2019, dated 2025).

Experiment [1] addresses CDK4/D1 (Homo sapiens, UniProt P11802). Description: ADP Glo kinase assay, CDK4/D1. In kind it is biochemical. The conditions noted are these: CDK4D1; for Ki: apparent Ki calculated from Km (ATP) and IC50, read-out: CDK inhibition Ki; for remaining activity at 10 µM: compound at 10 μM, read-out: residual enzymatic activity (%) at 10 μM.
The target in experiment [2] is CDK6/D3 (Homo sapiens, UniProt Q00534). Description: ADP Glo kinase assay, CDK6/D3. It counts as biochemical. The settings on record: CDK6D3; for Ki: apparent Ki calculated from Km (ATP) and IC50, read-out: CDK inhibition Ki; for remaining activity at 10 µM: compound at 10 μM, read-out: residual enzymatic activity (%) at 10 μM.
Chain of CDK6/D3 (Q00534 whole entry, species assumed): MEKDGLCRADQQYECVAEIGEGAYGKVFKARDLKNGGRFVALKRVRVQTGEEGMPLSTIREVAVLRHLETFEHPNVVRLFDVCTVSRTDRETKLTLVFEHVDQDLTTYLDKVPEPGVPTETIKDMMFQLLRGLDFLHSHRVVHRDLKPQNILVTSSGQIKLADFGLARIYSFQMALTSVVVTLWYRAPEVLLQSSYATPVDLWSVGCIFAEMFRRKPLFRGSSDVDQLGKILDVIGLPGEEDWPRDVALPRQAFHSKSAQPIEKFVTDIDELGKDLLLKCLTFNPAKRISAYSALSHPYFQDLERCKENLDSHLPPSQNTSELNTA
Chain of CDK6/D3 (P30281 whole entry partner, species assumed): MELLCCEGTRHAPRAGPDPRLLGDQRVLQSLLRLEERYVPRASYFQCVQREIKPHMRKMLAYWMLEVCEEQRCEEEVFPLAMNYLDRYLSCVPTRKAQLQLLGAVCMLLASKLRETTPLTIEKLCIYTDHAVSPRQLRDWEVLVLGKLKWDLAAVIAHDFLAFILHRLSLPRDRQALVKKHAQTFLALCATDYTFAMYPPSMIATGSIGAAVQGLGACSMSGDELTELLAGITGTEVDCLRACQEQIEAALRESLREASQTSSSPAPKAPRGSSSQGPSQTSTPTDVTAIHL
Description: (§1) Inhibition of FLT3(WT), FLT3(ITD) and FLT3(D835Y) and CDKs were determined using ADP Glo Kinase assays (Promega Corporation, Madison, WI, USA). […] Similarly, kinase reaction for CDK4/D1 and CDK6/D3 was performed with reaction buffer (40 nM Tris base pH 7.5, 20 mM MgCl2, 0.4 mM DTT), 0.1 mg/ml BSA and RB-CTF substrate (retinoblastoma protein1 C-terminal fraction). For CDK9/CyclinT1, the kinase reaction was performed with the standard assay buffer and Kinase Dilution Buffer and RBER-IRStide substrate. Half-maximal inhibition (IC50) values were calculated using a 4-parameter logistic non-linear regression model with Graphpad prism (Version 6.0). Apparent inhibition constants (Ki) values were calculated from Km (ATP) and IC50 values for the respective kinases.
The target in experiment [3] is CDK9/CyclinT1 (Homo sapiens, UniProt P50750). Description: ADP Glo kinase assay, CDK9/CyclinT1. In kind it is biochemical. The conditions noted are these: CDK9T1; for Ki: apparent Ki calculated from Km (ATP) and IC50, read-out: CDK inhibition Ki; for remaining activity at 10 µM: compound at 10 μM, read-out: residual enzymatic activity (%) at 10 μM.
Chain of CDK9/CyclinT1 (P50750 whole entry, species assumed): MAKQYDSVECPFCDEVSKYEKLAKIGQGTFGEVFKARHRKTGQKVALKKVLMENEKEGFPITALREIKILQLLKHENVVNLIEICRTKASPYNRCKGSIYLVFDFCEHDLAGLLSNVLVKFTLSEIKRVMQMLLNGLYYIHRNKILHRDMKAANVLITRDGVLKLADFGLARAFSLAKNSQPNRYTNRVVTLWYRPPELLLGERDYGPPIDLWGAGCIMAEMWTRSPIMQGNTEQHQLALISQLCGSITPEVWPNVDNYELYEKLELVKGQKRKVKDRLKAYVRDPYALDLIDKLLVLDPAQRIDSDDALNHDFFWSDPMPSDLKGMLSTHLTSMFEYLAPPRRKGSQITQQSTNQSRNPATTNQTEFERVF
Chain of CDK9/CyclinT1 (O60563 whole entry partner, species assumed): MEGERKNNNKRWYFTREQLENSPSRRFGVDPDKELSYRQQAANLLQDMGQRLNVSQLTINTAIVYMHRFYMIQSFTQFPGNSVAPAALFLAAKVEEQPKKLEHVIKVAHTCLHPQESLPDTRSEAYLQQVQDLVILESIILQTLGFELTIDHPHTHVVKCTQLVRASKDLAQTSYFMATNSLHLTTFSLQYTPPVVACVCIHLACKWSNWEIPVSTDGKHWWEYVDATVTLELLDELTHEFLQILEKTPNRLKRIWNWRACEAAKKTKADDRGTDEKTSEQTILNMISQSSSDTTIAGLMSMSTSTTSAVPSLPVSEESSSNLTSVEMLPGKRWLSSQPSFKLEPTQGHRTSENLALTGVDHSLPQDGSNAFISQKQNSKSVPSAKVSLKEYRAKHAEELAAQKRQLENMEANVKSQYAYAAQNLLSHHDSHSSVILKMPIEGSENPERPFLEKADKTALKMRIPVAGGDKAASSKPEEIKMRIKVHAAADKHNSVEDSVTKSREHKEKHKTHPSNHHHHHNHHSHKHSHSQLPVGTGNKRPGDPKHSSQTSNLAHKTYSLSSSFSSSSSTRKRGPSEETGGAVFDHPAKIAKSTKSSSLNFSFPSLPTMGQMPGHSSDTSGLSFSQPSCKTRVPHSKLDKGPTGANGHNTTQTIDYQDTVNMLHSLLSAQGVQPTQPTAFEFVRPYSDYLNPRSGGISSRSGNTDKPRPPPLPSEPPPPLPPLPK
Description: as §1
Experiment [4] relates to MV-4-11. Description: Proliferation assay (resazurin/MTT), MV-4-11. It counts as cell-based. The conditions noted are these: Homo sapiens, MV4-11, read-out: 72 h Growth inhibition GI50, MV-4-11 cells.
In experiment [5] the test system is U937. Description: Proliferation assay (resazurin/MTT), U937. The settings on record: Homo sapiens, U-937, read-out: 72 h Growth inhibition GI50, U937 cells. In kind it is cell-based. A general note: Alamar Blue is a resazurin reagent that responds to reducing activity.
In experiment [6] the target is CDK2E1 (Homo sapiens, UniProt P24941).
For experiment [7], the target named is CDK7HMAT1 (Homo sapiens, UniProt P50613).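 Also: kinase activity measured with an ADP-Glo luminescent kinase assay.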
Chain of CDK7HMAT1 (P50613 whole entry): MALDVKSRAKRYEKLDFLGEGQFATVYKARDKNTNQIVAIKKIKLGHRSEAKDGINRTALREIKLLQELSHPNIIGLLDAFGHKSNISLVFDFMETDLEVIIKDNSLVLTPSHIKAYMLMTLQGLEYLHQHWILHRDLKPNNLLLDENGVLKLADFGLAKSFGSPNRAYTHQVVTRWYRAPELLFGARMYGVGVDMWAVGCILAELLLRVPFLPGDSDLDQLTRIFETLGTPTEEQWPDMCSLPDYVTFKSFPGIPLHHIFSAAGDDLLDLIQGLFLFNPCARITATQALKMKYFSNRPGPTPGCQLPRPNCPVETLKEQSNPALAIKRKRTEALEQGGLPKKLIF
Chain of CDK7HMAT1 (P51946 whole entry partner): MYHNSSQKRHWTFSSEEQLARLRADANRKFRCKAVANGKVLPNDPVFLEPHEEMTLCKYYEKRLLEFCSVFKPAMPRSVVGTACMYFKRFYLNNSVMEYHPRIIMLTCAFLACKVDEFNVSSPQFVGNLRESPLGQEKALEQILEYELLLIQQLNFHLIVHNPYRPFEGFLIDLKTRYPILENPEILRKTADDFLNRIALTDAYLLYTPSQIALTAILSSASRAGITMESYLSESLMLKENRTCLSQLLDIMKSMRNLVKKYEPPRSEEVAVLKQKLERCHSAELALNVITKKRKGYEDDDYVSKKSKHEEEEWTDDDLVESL
Chain of CDK7HMAT1 (P51948 whole entry partner): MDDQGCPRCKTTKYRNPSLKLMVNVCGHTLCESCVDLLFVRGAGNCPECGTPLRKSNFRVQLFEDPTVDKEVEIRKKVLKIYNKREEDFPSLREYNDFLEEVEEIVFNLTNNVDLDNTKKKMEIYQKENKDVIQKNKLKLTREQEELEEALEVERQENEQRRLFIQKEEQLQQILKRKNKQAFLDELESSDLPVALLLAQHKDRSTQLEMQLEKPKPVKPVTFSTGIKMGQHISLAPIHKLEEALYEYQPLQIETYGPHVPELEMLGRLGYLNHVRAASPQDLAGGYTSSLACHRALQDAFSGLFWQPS
Experiment [8] has as its target T1, CDK1B (Homo sapiens, UniProt P06493). Description: biochemical.
The target in experiment [9] is T2, FLT3(WT) (Homo sapiens, UniProt P36888).
T2 sequence (P36888 27-993): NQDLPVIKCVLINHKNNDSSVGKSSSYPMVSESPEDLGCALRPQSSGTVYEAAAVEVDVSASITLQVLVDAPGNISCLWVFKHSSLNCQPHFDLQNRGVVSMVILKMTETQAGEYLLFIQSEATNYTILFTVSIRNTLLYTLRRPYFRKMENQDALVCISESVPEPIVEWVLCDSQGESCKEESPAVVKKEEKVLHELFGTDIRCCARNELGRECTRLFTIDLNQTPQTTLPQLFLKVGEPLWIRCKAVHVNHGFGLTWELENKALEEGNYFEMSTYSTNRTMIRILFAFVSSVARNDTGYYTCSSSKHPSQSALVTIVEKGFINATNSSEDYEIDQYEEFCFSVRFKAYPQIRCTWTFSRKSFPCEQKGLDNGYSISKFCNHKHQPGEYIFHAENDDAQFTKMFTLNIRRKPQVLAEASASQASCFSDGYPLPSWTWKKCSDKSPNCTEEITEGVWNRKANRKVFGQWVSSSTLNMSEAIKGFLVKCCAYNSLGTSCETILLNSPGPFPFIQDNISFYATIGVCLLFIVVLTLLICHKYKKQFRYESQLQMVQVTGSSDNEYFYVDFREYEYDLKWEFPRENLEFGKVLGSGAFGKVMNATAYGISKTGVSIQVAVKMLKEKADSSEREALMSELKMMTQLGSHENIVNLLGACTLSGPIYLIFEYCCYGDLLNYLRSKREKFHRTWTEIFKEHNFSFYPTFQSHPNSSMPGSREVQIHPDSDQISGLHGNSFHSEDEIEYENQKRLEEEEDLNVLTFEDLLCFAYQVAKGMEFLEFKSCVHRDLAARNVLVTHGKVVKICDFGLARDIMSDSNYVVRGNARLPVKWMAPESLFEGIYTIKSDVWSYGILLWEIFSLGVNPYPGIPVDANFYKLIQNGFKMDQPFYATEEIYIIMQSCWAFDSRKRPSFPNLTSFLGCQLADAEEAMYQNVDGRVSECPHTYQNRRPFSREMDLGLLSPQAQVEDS
Description: ADP Glo kinase assay, FLT3(WT). In kind it is biochemical. The conditions noted are these: for Ki: apparent Ki calculated from Km (ATP) and IC50, read-out: FLT3 inhibition Ki.
Description: (§2) Inhibition of FLT3(WT), FLT3(ITD) and FLT3(D835Y) and CDKs were determined using ADP Glo Kinase assays (Promega Corporation, Madison, WI, USA). […] The kinase reactions are run for an optimised time period (FLT3-WT: 120 min, FLT3-ITD: 80 min, FLT3-D835Y: 100 min) at room temperature and then the reaction was stopped by adding 5 μL of ADP Glo reagent. […] Positive and negative controls were performed in 0.5% DMSO in the presence and absence of each FLT3 kinase, respectively. […] Half-maximal inhibition (IC50) values were calculated using a 4-parameter logistic non-linear regression model with Graphpad prism (Version 6.0). Apparent inhibition constants (Ki) values were calculated from Km (ATP) and IC50 values for the respective kinases.

The target in experiment [10] is T3, FLT3(ITD) (Homo sapiens, UniProt P36888).
T3 sequence (P36888 1-993): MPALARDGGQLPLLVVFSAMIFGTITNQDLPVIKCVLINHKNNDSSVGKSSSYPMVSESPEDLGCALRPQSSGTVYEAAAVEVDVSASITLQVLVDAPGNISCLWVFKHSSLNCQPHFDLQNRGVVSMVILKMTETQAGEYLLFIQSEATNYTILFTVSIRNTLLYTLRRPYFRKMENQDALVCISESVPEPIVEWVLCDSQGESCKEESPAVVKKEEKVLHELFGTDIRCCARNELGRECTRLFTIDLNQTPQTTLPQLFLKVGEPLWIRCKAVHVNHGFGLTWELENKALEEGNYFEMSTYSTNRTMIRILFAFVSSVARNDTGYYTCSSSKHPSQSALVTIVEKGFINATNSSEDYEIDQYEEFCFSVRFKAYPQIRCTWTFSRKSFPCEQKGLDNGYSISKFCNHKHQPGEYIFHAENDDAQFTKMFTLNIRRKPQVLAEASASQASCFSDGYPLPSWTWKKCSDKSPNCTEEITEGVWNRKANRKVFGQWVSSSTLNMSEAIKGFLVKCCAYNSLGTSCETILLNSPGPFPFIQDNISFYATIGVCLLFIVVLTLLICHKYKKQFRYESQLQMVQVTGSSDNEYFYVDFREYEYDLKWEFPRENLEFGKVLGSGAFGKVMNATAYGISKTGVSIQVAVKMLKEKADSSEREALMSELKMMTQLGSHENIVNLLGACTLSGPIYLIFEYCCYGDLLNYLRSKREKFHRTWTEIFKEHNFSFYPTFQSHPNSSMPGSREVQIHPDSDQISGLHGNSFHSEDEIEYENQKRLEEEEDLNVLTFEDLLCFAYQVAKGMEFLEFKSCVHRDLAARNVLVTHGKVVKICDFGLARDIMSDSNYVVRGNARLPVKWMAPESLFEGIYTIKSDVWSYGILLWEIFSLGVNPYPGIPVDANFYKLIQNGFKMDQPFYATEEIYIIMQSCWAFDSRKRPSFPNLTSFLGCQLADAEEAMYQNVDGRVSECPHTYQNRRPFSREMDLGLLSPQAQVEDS
Description: ADP Glo kinase assay, FLT3(ITD). In kind it is biochemical. The settings on record: apparent Ki calculated from Km (ATP) and IC50, read-out: FLT3 inhibition Ki.
Description: as §2

The target of experiment [11] is T4, FLT3(D835Y) (Homo sapiens, UniProt P36888, D835Y).
T4 sequence (P36888 27-993 D835Y): T2 sequence (P36888 27-993) with D809Y
Description: ADP Glo kinase assay, FLT3(D835Y). It counts as biochemical. The settings on record: apparent Ki calculated from Km (ATP) and IC50, read-out: FLT3 inhibition Ki.
Description: as §2

In experiment [12] the target is T1, CDK1B.
[13] abbreviates: compound at 1 μM (values marked *), read-out: residual enzymatic activity (%) at 1 μM*.

Residue numbers refer to the chain shown, from its start. Like-named read-outs stand apart in the source and are kept apart here. Bounds are passed on as bounds.

T1 sequence (P06493 whole entry): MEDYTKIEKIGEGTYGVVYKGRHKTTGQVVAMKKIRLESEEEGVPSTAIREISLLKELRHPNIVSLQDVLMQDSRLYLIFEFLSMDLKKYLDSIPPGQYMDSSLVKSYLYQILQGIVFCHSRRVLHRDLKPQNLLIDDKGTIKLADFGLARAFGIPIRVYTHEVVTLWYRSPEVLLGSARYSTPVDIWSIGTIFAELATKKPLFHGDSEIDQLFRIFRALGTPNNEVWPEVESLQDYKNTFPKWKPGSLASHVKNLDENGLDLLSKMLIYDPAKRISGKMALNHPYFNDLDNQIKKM
T1 sequence (P14635 whole entry partner): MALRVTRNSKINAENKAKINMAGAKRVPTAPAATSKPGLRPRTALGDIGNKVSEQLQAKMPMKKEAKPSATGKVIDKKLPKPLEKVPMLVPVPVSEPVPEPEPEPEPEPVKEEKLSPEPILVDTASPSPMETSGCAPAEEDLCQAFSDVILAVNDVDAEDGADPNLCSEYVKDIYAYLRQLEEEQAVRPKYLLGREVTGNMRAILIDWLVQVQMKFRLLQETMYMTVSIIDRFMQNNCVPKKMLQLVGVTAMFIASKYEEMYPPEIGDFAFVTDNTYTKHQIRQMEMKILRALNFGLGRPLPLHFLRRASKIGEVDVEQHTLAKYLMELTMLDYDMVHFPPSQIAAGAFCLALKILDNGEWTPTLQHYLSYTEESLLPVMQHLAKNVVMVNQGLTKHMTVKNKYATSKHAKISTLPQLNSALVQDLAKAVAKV
Chain of CDK4/D1 (P11802 whole entry, species assumed): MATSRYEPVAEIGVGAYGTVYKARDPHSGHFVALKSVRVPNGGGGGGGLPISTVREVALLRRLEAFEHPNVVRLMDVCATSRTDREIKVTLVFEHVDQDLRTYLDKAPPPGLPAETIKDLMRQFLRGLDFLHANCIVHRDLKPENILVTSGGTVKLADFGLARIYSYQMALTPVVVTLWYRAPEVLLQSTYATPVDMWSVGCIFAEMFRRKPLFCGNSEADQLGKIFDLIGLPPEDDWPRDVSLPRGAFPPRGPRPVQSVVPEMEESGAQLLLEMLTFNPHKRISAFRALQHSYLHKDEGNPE
Chain of CDK4/D1 (P24385 whole entry partner, species assumed): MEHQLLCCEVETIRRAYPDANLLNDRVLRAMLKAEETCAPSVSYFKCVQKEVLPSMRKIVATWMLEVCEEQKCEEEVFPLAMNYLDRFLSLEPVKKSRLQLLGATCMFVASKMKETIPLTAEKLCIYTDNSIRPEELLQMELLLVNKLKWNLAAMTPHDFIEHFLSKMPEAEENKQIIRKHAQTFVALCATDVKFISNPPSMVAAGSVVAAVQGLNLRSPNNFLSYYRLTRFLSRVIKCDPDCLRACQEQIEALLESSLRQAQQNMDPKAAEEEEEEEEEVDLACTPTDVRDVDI

One may read the GI50 as the concentration that inhibits growth by half. In the case of `CC(=O)N1CCN(c2ccc(Nc3nccc(-c4cnc5ccc(C)cn45)n3)nc2)CC1` [Cmpd 13, 1-(4-(6-((4-(6-Methylimidazo[1,2-a]pyridin-3-yl)pyrimidin-2-yl)amino)pyridin-3-yl)piperazin-1-yl)ethan-1-one], the Ki is 419 nM in experiment [1], 2400 nM in experiment [2], 163 nM in [3] and 2450 nM in [8]. Besides, the GI50 in [4] was determined as 6 nM; in experiment [5], 1470 nM. The activity in experiment [6] (1 µM) was 52%; in [7] (10 µM) it was 77%.

`CC(=O)N1CCN(c2ccc(Nc3nccc(-c4cnc5ccc(Br)cn45)n3)nc2)CC1` [Cmpd 10, 1-(4-(6-((4-(6-Bromoimidazo[1,2-a]pyridin-3-yl)pyrimidin-2-yl)amino)pyridin-3-yl)piperazin-1-yl)ethan-1-one]: the figures for the remaining activity at 10 µM in experiment [1], in experiment [2] and in experiment [3] were 34%, 36% and 23%, respectively. Moreover, the Ki in experiment [9] was 83 nM; in [10], 6 nM; in experiment [11], 10 nM. Also, the GI50 in experiment [4] is 2 nM; in experiment [5], 3130 nM. Moreover, the values for the activity in experiment [12] (10 µM), in experiment [6] (1 µM) and in experiment [7] (10 µM) were 41%, 58% and 55%, respectively.

As to `CS(=O)(=O)N1CCN(c2ccc(Nc3nccc(-c4cnc5ccc(Br)cn45)n3)nc2)CC1` [Cmpd 50, 4-(6-Bromoimidazo[1,2-a]pyridin-3-yl)-N-(5-(4-(methylsulfonyl)piperazin-1-yl)pyridin-2-yl)pyrimidin-2-amine], the remaining activity at 1 µM in [1] (setting [13]) worked out at 40%; in experiment [2] (setting [13]) it was 63%; in experiment [3] (setting [13]) it was 48%. Besides, the Ki in experiment [9] was 35 nM; in experiment [10], 180 nM; in experiment [11] it was 15 nM. For the same compound, the concentration for 50% growth inhibition (GI50) was found to be 7 nM in experiment [4] and 127 nM in experiment [5]. The activity in experiment [12] (1 µM) amounted to 62%; in experiment [6] (1 µM) it was 74%; in experiment [7] (1 µM) it was 57%.

Take `CC(=O)N1CCN(c2ccc(Nc3nccc(-c4cnc5ccccn45)n3)nc2)CC1` [Cmpd 3, 1-(4-(6-((4-(Imidazo[1,2-a]pyridin-3-yl)pyrimidin-2-yl)amino)pyridin-3-yl)piperazin-1-yl)ethan-1-one]: the Ki in experiment [1] is 1970 nM; in experiment [2] it was greater than 10000 nM; in experiment [3], 519 nM; in experiment [8] it was 3460 nM. Also, the 50% growth inhibitory concentration (GI50) in experiment [4] turned out to be 20 nM; in experiment [5], 2850 nM. This compound also came in with an activity in experiment [6] (10 µM) of 49%.

Consider `CC(=O)N1CCN(c2ccc(Nc3nccc(-c4cnc5ccc(Cl)cn45)n3)nc2)CC1` [Cmpd 9, 1-(4-(6-((4-(6-Chloroimidazo[1,2-a]pyridin-3-yl)pyrimidin-2-yl)amino)pyridin-3-yl)piperazin-1-yl)ethan-1-one], for which the remaining activity at 10 µM was 46% in experiment [1], 32% in experiment [2] and 28% in experiment [3]. Further, the Ki in experiment [9] is 117 nM; in experiment [10], 30 nM; in experiment [11] it was 9 nM. The results for the GI50 in experiment [4] and in experiment [5] were 15 nM and 797 nM, respectively. Also, the values for the activity in experiment [12] (10 µM), in experiment [6] (1 µM) and in experiment [7] (10 µM) were 94%, 64% and 76%, respectively.

Turning to `CC(=O)N1CCN(c2ccc(Nc3nccc(-c4cnc5ccc(-c6cnc(N7CCN(C)CC7)nc6)cn45)n3)nc2)CC1` [Cmpd 20, 1-(4-(6-((4-(6-(2-(4-Methylpiperazin-1-yl)pyrimidin-5-yl)imidazo[1,2-a]pyridin-3-yl)pyrimidin-2-yl)amino)pyridin-3-yl)piperazin-1-yl)ethan-1-one], the remaining activity at 10 µM in [1] came to 70%; in experiment [2], 77%; in experiment [3] it was 38%. Besides, in [9] (compound at 1 μM, read-out: residual enzymatic activity (%) at 1 μM), the remaining activity at 1 µM was 36%. Besides, the Ki in experiment [10] was 127 nM; in [11], 58 nM. For the same compound, the concentration for 50% growth inhibition (GI50) in [4] amounted to 60 nM; in experiment [5], 4040 nM. Also, the activity in experiment [12] (10 µM) was 100%; in [6] (1 µM) it was 83%; in experiment [7] (10 µM) it was 66%.
